# According to patent US20140303092A1 (CHIMERIX, INC., priority 2011, published 2014):
# Assay: Study HDP-CDV-201: safety and tolerability (adverse events, laboratory abnormalities, discontinuations)
# Format: in vivo, human (adult allogeneic HSCT recipients)
# Settings: Cohort 1, 40 mg QW
# Protocol: Clinical Studies of HDP-CDV were performed and described in detail in the following Examples. For example, HDP-CDV-201 is a placebo-controlled, dose-escalating trial in HSCT CMV (R+) recipients, evaluating the ability of HDP-CDV to prevent or control CMV infection was carried out. Five cohorts were established in which participants or subjects received either placebo or the HDP-CDV orally, in doses ranging from 40 mg weekly (QW) to 200 mg twice weekly (BIW). Subjects who were post-HSCT were enrolled at the time of engraftment and randomized to HDP-CDV or placebo (3 to 1 ratio) and received blinded therapy until approximately 100 day post-transplantation. HDP-CDV doses were 40 mg QW, 100 mg QW, 200 mg QW, 200 mg BIW and 100 mg BIW. Escalation to the next dose was decided by the data monitoring committee after review of the safety data from the previous Cohort. Subjects who developed CMV disease or CMV infection requiring pre-emptive therapy with local standard of care were discontinued from blinded therapy and followed for 4 weeks. Subjects who completed treatment with blinded therapy were followed for 8 weeks post-therapy.
# Data from Study HDP-CDV-201 also provided characterization of the safety and tolerability profile of HDP-CDV when administered for the prevention or control of CMV infection in high risk (R^+) post-HSCT adult subjects.
# The Safety population (SAFETY) included all randomized subjects who took at least one dose of study treatment. This population was used to summarize safety outcomes based on the treatment actually received, in cases where a subject was treated contrary to the randomization schedule.
# The safety and tolerability profile of HDP-CDV, including subject demographics and Baseline characteristics; the AE profile; and laboratory abnormalities of interest were analyzed in the cohorts followed in this investigation.
# Subjects completing the treatment period received a full course of study medication; those completing the entire study attended visits through 8 weeks of follow up. Subjects who discontinued treatment may have done so for protocol specified reasons (e.g. development of clinically significant CMV infection requiring preemptive treatment with excluded anti-CMV medications) or for other reasons (e.g., withdrawal, adverse events, loss to follow-up). The disposition of subjects in Study HDP-CDV-201 during the double-blind, placebo-controlled treatment period (through Week 11) is listed by dosing Cohort in TABLE 23.
# Adverse events were examined by severity to ensure that all safety signals were identified in this study population. Because of the frequency of events in HSCT recipients, particular attention was given to evaluation of Grade 3 […], 4 (severe), and 5 (fatal) adverse events.
# Only those preferred terms for which at least one Grade 3 or higher event was experienced in any treatment group are listed. Cytomegalovirus-related AEs are excluded from this analysis.
# HDP-CDV is a lipid conjugate of CDV. Because CDV is known to have adverse effects on renal function and bone marrow, decreased GFR and persistent neutropenia were identified as AEs of special interest. Key renal and hematological (TABLE 30) laboratory parameters were measured and listed below by Study HDP-CDV-201 treatment groups. TABLE 30 includes abnormal levels of serum creatinine, neutrophils, platelets, WBCs, and hemoglobin and includes data at Screening and during the treatment period.
# A common metric for unit based dosing of medications is by weight (mg/kg). When the distribution of weights was examined for all subjects participating in the study, the median was 78 kg and the lower 25th percentile weight was approximately 65 kg, which translates to a cut-off of ˜3 mg/kg for a 200 mg total weekly dose. Based upon this approach, a cut-off of 3 mg/kg was used to assess the frequency of diarrhea and associated GI AEs reported for the subjects in Cohorts 3 or 4a (TABLE 40).
smiles,measurement,setting,value
CCCCCCCCCCCCCCCCOCCCOP(=O)(O)COC(CO)Cn1ccc(N)nc1=O (stereo not shown) [HDP-CDV],"Gastrointestinal AE Abdominal discomfort, subjects",,0
same,"Gastrointestinal AE Abdominal distention, subjects",,2 (8.0%)
same,"Gastrointestinal AE Abdominal pain upper, subjects",,1 (4.0%)
same,"Gastrointestinal AE Abdominal pain, subjects",,4 (16.0%)
same,"Gastrointestinal AE Constipation, subjects",,1 (4.0%)
same,"Gastrointestinal AE Diarrhoea, subjects",,3 (12.0%)
same,"Gastrointestinal AE Diverticulum intestinal haemorragic, subjects",,0
same,"Gastrointestinal AE Dyspepsia, subjects",,3 (12.0%)
same,"Gastrointestinal AE Dysphagia, subjects",,0
same,"Gastrointestinal AE Epigastric discomfort, subjects",,1 (4.0%)
same,"Gastrointestinal AE Flatulence, subjects",,0
same,"Gastrointestinal AE GERD, subjects",,2 (8.0%)
same,"Gastrointestinal AE Gastritis, subjects",,0
same,"Gastrointestinal AE Haematochezia, subjects",,1 (4.0%)
same,"Gastrointestinal AE Haemorroids, subjects",,1 (4.0%)
same,"Gastrointestinal AE Large intestinal ulcer, subjects",,1 (4.0%)
same,"Gastrointestinal AE Nausea, subjects",,6 (24.0%)
same,"Gastrointestinal AE Odynophagia, subjects",,0
same,"Gastrointestinal AE Oesophagitis, subjects",,1 (4.0%)
same,"Gastrointestinal AE Retching, subjects",,0
same,"Gastrointestinal AE Vomiting, subjects",,2 (8.0%)
same,"Hepatobiliary clinical AE Cholelithiasis, subjects",,1 (4.0%)
same,"Hepatobiliary clinical AE Hepatomegaly, subjects",,0
same,"Hepatobiliary clinical AE Hyperbilirubinaemia, subjects",,1 (4.0%)
same,"Hepatobiliary clinical AE Jaundice, subjects",,0
same,"Hepatobiliary clinical AE Liver injury, subjects",,0
same,"Intensity of Gastrointestinal AEs, Grade 1, subjects",,9 (36.0%)
same,"Intensity of Gastrointestinal AEs, Grade 2, subjects",,6 (24.0%)
same,"Intensity of Gastrointestinal AEs, Grade 3, subjects",,2 (8.0%)
same,"Intensity of Gastrointestinal AEs, Grade 4, subjects",,0
same,"Intensity of Gastrointestinal AEs, Grade 5, subjects",,0
same,"Serum ALT level, Median fold increase from Baseline at Follow-up Week 1",,1.50 fold
same,"Serum ALT level, Median fold increase from Baseline at Follow-up Week 4",,1.00 fold
same,"Serum ALT level, Peak Median fold increase from Baseline",,1.80 fold
same,Subjects completed study,,7 (28.0%) n (%)
same,"Total Bilirubin (Screening) >1-[…] ULN, subjects",,1 (4.0%)
same,"Total Bilirubin (Screening) >1.5-3 × ULN, subjects",,3 (12.0%)
same,"Total Bilirubin (Screening) >3-10 × ULN, subjects",,0
same,"Total Bilirubin (Screening) >10 × ULN, subjects",,0
same,"Total Bilirubin (any time during therapy) >1-[…] ULN, subjects",,3 (13.0%)
same,"Total Bilirubin (any time during therapy) >1.5-3 × ULN, subjects",,1 (4.3%)
same,"Total Bilirubin (any time during therapy) >3-10 × ULN, subjects",,0
same,"Total Bilirubin (any time during therapy) >10 × ULN, subjects",,0
same,Abdominal pain leading to study drug withdrawal,N = 25,0%
same,All AEs leading to withdrawal,N = 25,15 (60.0%)
same,Diarrhoea leading to study drug withdrawal,N = 25,0%
same,Dyspepsia leading to study drug withdrawal,N = 25,0%
same,Nausea leading to study drug withdrawal,N = 25,0%
same,TEAE ALT increased,N = 25,2 (8.0%) n (%)
same,TEAE AST increased,N = 25,1 (4.0%) n (%)
same,TEAE Abdominal pain,N = 25,4 (16.0%) n (%)
same,"TEAE Abdominal pain, Upper",N = 25,1 (4.0%) n (%)
same,TEAE Acute GVHD,N = 25,6 (24.0%) n (%)
same,TEAE Acute Myeloid Leukemia recurrent,N = 25,3 (12.0%) n (%)
same,TEAE Acute Renal Failure,N = 25,2 (8.0%) n (%)
